Test system: E. Tenella
Assay: Anti-coccidial activity against E. Tenella in chickens
Type: in vivo
Settings: 75 PPM in feed
Protocol: This test utilizes ten chickens per drug group. Ten chickens are employed as a weight control and ten chickens as an infected control. The drug is given 48 hours in advance of the infection. One gm. of the test drug is mixed in a mechanical mixer with a sufficient amount of chicken feed to result in the desired dosage. The infection consists of approximately 200,000 oocysts given orally by pipette. The tests lasts for eleven days and the surviving bids are autopsied and examined for gross lesions in the ceca. The test bids are rated according to the number of survivors and the number of cecal lesions. The results are expressed as average degree of infection (A.D.I.). An average degree of infection of less than 2.5 is considered to be significant.

## CC[C@@H](C(=O)[C@@H](C)[C@@H](O)[C@H](C)CCc1ccc(C)c(O)c1C(=O)O)[C@H]1O[C@](CC)([C@H]2CC[C@](O)(CC)[C@H](C)O2)C[C@@H]1C [Lasalocid]
  Mort. %: 0%
  Weight Gain %: 98%
<2.5 considered significant
  Ave. Degree Infect.: 0.0
